Source: patent US9981940B2, “Aryl sulfide derivatives and aryl sulfoxide derivatives as acaricides and insecticides” (BAYER CROPSCIENCE AKTIENGESELLSCHAFT, priority 2013, dated 2018)

Legend:
[1] = log P by HPLC (OECD Guideline 117), method [b] neutral range; format: physicochemical; conditions: HPLC; for logP[b]: method [b] neutral range; for chromatographic logP: reversed-phase C18 HPLC column, neutral range, pH 7.8
Procedure: (§1) The log P values were determined analogously to OECD Guideline 117 (EC Directive 92/69/EEC) by HPLC (high-performance liquid chromatography) using reversed-phase columns (C 18), by the following methods:
[b] The LC-MS determination in the neutral range is effected at pH 7.8 with 0.001 molar aqueous ammonium hydrogencarbonate solution and acetonitrile as eluents; linear gradient from 10% acetonitrile to 95% acetonitrile.

[2] = log P by HPLC (OECD Guideline 117), method [a] acidic range; format: physicochemical; conditions: for logP[a]: HPLC, method [a] acidic range; for chromatographic logP: reversed-phase C18 HPLC column, acidic range
Procedure: as §1
[a] The LC-MS determination in the acidic range is effected at pH 2.7 with 0.1% aqueous formic acid and acetonitrile (contains 0.1% formic acid) as eluents; linear gradient from 10% acetonitrile to 95% acetonitrile.

[3] = system: Tetranychus urticae; assay: Tetranychus urticae spray test, OP-resistant (TETRUR); format: in vivo; conditions: application rate of 500 g/ha, after 6 days; for pest or weed control at 500 g/ha: Tetranychus urticae, 144 h, read-out: efficacy
In short: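 Bean leaf discs infested with all stages of an OP-resistant Tetranychus urticae strain sprayed with compound in acetone/DMF with alkylaryl polyglycol ether emulsifier, diluted in water. Efficacy in % scored after 6 days; 100% means all mites killed.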

[4] = pH 2.7, HPLC method [a], read-out: logP[a]
[5] = pH 2.7, HPLC, pH 2.7, read-out: log P[a]

Compound | logP[b] [1] | logP[a] [2] | efficacy [3] [%] | chromatographic logP [1] | chromatographic logP [2, 4] | chromatographic logP [2, 5] | pest or weed control at 500 g/ha [3] [%]
COCCCn1c(OC)nn(-c2cc(SCC(F)(F)F)c(C)cc2F)c1=O [Example 388] | 3.15 | 3.16 | 90 | – | – | – | –
CCCn1c(OC)nn(-c2cc(SCC(F)(F)F)c(C)cc2F)c1=O [Example 389] | 3.46 | 3.53 | 90 | – | – | – | –
C=CCOc1nn(-c2cc([S+]([O-])CC(F)(F)F)c(C)cc2F)c(=O)n1C1CC1 (centres unmarked) [Example 391] | 2.65 | 2.68 | 100 | – | – | – | –
COc1cc(F)c(-n2nc(OCC(C)(C)C)n(C3CC3)c2=O)cc1SCC(F)(F)F [Example 395] | 4.32 | 4.38 | 100 | – | – | – | –
Cc1cc(Cl)c(-n2nc(OCC(C)(C)C)n(C3CC3)c2=O)cc1SCC(F)(F)F [Example 396] | 4.85 | 4.92 | 100 | – | – | – | –
CC(C)(C)COc1nn(-c2cc(SCC(F)(F)F)c(Cl)cc2Cl)c(=O)n1C1CC1 [Example 397] | 5.04 | 5.12 | 100 | – | – | – | –
CCn1c(OCC(F)(F)F)nn(-c2cc(SCC(F)(F)F)c(C)cc2F)c1=O [Example 398] | 3.79 | 3.84 | 100 | – | – | – | –
C=CCn1c(OCC(F)(F)F)nn(-c2cc(SCC(F)(F)F)c(C)cc2F)c1=O [Example 399] | 3.89 | 3.94 | 90 | – | – | – | –
CCCOc1nn(-c2cc(SCC(F)(F)F)c(C)cc2F)c(=O)n1CC [Example 400] | 3.96 | 4.06 | 100 | – | – | – | –
CCOc1nn(-c2cc(SCC(F)(F)F)c(C)cc2F)c(=O)n1CC [Example 401] | 3.53 | 3.62 | 100 | – | – | – | –
CC(C)(C)COc1nn(-c2cc([S+]([O-])CC(F)(F)F)c(Cl)cc2F)c(=O)n1C1CC1 (centres unmarked) [Example 402] | 3.98 | 4.13 | 90 | – | – | – | –
COc1cc(F)c(-n2nc(OCC(C)(C)C)n(C3CC3)c2=O)cc1[S+]([O-])CC(F)(F)F (centres unmarked) [Example 403] | 3.44 | 3.50 | 100 | – | – | – | –
Cc1cc(Cl)c(-n2nc(OCC(C)(C)C)n(C3CC3)c2=O)cc1[S+]([O-])CC(F)(F)F (centres unmarked) [Example 404] | 3.71 | 3.79 | 100 | – | – | – | –
CC(C)(C)COc1nn(-c2cc([S+]([O-])CC(F)(F)F)c(Cl)cc2Cl)c(=O)n1C1CC1 (centres unmarked) [Example 405] | 4.18 | 4.36 | 90 | – | – | – | –
C=CCn1c(OCC(F)(F)F)nn(-c2cc([S+]([O-])CC(F)(F)F)c(C)cc2F)c1=O (centres unmarked) [Example 407] | 2.90 | 2.94 | 90 | – | – | – | –
CCCOc1nn(-c2cc([S+]([O-])CC(F)(F)F)c(C)cc2F)c(=O)n1CC (centres unmarked) [Example 408] | 2.81 | 2.86 | 100 | – | – | – | –
CCOc1nn(-c2cc([S+]([O-])CC(F)(F)F)c(C)cc2F)c(=O)n1CC (centres unmarked) [Example 409] | 2.44 | 2.44 | 90 | – | – | – | –
Cc1cc(F)c(-n2nc(OCc3ccccc3)n(C3CC3)c2=O)cc1SCC(F)(F)F [Example 410] | 4.25 | 4.32 | 100 | – | – | – | –

Compound | logP[b] [1] | logP[a] [2] | efficacy [3] [%] | chromatographic logP [1] | chromatographic logP [2, 4] | chromatographic logP [2, 5] | pest or weed control at 500 g/ha [3] [%]
COc1nn(-c2cc([S+]([O-])CC(F)(F)F)c(C)cc2F)c(=O)n1CC1CC1 (centres unmarked) [Example 412] | 2.52 | 2.54 | 100 | – | – | – | –
COc1nn(-c2cc([S+]([O-])CC(F)(F)F)c(C)cc2F)c(=O)n1C(C)C (centres unmarked) [Example 413] | 2.40 | 2.44 | 90 | – | – | – | –
Cc1cc(F)c(-n2nc(OCc3ccccc3)n(C3CC3)c2=O)cc1[S+]([O-])CC(F)(F)F (centres unmarked) [Example 414] | 3.19 | 3.24 | 100 | – | – | – | –
Cc1cc(F)c(-n2nc(N(C)C)n(C3CC3)c2=O)cc1SCC(F)(F)F [Example 416] | 3.80 | 3.86 | 90 | – | – | – | –
Cc1cc(F)c(-n2nc(C(C)C)n(N)c2=O)cc1S(=O)(=O)CC(F)(F)F [Example 417] | 2.21 | 2.25 | 100 | – | – | – | –
COn1c(C(C)C)nn(-c2cc(SCC(F)(F)F)c(C)cc2F)c1=O [Example 418] | 3.49 | 3.52 | 90 | – | – | – | –
COn1c(C(C)C)nn(-c2cc([S+]([O-])CC(F)(F)F)c(C)cc2F)c1=O (centres unmarked) [Example 419] | 2.42 | 2.46 | 100 | – | – | – | –
Cc1cc(F)c(-n2nc(S(C)(=O)=O)n(C)c2=O)cc1SCC(F)(F)F [Example 420, 2-{2-Fluoro-4-methyl-5-[(2,2,2-trifluoroethyl)sulphanyl]phenyl}-4-methyl-5-(methylsulphonyl)-2,4-dihydro-3H-1,2,4-triazol-3-one] | – | – | – | 2.77 | 2.7 | 2.7 | 90
Cc1cc(F)c(-n2nc(S(C)(=O)=O)n(C)c2=O)cc1[S+]([O-])CC(F)(F)F (centres unmarked) [Example 421, 2-{2-Fluoro-4-methyl-5-[(2,2,2-trifluoroethyl)sulphinyl]phenyl}-4-methyl-5-(methylsulphonyl)-2,4-dihydro-3H-1,2,4-triazol-3-one] | – | – | – | 1.84 | 1.88 | 1.88 | 100
CCn1c(S(C)(=O)=O)nn(-c2cc([S+]([O-])CC(F)(F)F)c(C)cc2F)c1=O (centres unmarked) [Example 422] | 2.11 | 2.12 | 100 | – | – | – | –
C=CCn1c([S+]([O-])CC)nn(-c2cc([S+]([O-])CC(F)(F)F)c(C)cc2F)c1=O (centres unmarked) [Example 424] | 2.04 | 2.05 | 90 | – | – | – | –
C=CCSc1nn(-c2cc(SCC(F)(F)F)c(C)cc2F)c(=O)n1C1CC1 [Example 425] | 4.01 | 4.10 | 100 | – | – | – | –
C=CCn1c(SCCC)nn(-c2cc(SCC(F)(F)F)c(C)cc2F)c1=O [Example 427] | 4.37 | 4.45 | 90 | – | – | – | –
C=CCn1c(SCC)nn(-c2cc(SCC(F)(F)F)c(C)cc2F)c1=O [Example 428] | 3.96 | 4.03 | 100 | – | – | – | –
C=CCSc1nn(-c2cc(SCC(F)(F)F)c(C)cc2F)c(=O)n1CC=C [Example 429] | 4.07 | 4.13 | 90 | – | – | – | –
C=CCn1c(SCCC)nn(-c2cc([S+]([O-])CC(F)(F)F)c(C)cc2F)c1=O (centres unmarked) [Example 430] | 3.33 | 3.18 | 90 | – | – | – | –
C=CCn1c(SCC)nn(-c2cc([S+]([O-])CC(F)(F)F)c(C)cc2F)c1=O (centres unmarked) [Example 431] | 2.92 | 2.83 | 90 | – | – | – | –
Cc1cc(F)c(-n2nc(Br)n(C)c2=O)cc1[S+]([O-])CC(F)(F)F (centres unmarked) [Example 433] | 1.99 | 2.02 | 100 | – | – | – | –
